Assay results as given in patent US5753458A, “Acylation method for penicillins and cephalosporins” (Gist-Brocades B.V., priority 1994, dated 1998).
Counter-ions that a name gives are not always drawn.

How the values were obtained:
[1] = biological target: T1, immobilized penicillin G acylase from E. coli (Escherichia coli, UniProt P06875); experiment: Enzymatic amoxicillin synthesis with immobilized Pen G acylase and various enzyme modulators (Example 8); assay type: biochemical; conditions: standard synthesis conditions; enzyme 13 U/ml
Description: (§1) The ratio X is defined as the number of moles of D-HPGA consumed per mole of Amox produced. For practical use this can be transformed to X=1+moles D-HPG/moles Amox, wherein "moles D-HPG" is the molar amount of D-HPG produced by hydrolysis of the acylating agent and the desired product and "moles Amox" is the molar amount of Amox present in the reaction mixture. Thus, if X is 1 this means that only the desired synthesis takes place, no hydrolysis. If X is 2, this means that D-HPG and Amox are formed in equal amounts (on a molar basis). If X is 3, this means that twice as much D-HPG as Amox is present in the reaction mixture (on a molar basis). The ratio X can be calculated at any time during reaction, but in the following examples X is calculated at the reaction stop time, which is defined as the time at which 90 % of the theoretical yield of Amox is present in the reaction mixture (based on the inserted amount of 6-APA). Square brackets are used to designate molar concentrations.
(§2) In Examples 1-8 the following standard conditions for enzymatic amoxicillin synthesis have been used (see patent application No. WO 92/01061 for further details):
(§3) During the reactions, the pH value of the reaction mixtures was kept constant by titration with 2M sulphuric acid.
(§4) Representative samples of the reaction mixtures including solid constituents were taken at regular intervals during the reactions and analyzed by HPLC.
The compounds listed below improve synthesis performance (standard synthesis conditions, immobilized penicillin G acylase from E. coli; enzyme dosing 13 U/ml) in the sense that when they are present in the reaction mixture in a concentration within the interval specified, synthesis of the desired β-lactam antibiotic is favoured as compared to hydrolysis of the acylating agent: […]

[2] = biological target: T1, immobilized penicillin G acylase from E. coli; experiment: Enzymatic amoxicillin synthesis with immobilized Pen G acylase, Phyl concentration varied (Example 2); assay type: biochemical; conditions: [Phox] 2.6 μM, enzyme 8.6 U/ml
Description: V0 (Amox) is the initial velocity of Amox formation, and V0 (D-HPG) is the initial velocity of D-HPG formation, specified as μmoles/min/g enzyme, μmoles/min/ml reaction mixture, or nmoles/min/U (enzyme activity).
as §1, §2, §3, §4
A standard synthesis (immobilized penicillin G acylase from E. coli; enzyme dosing 8.6 U/ml) was carried out with no Phyl added.
Same conditions as in Experiment A were employed, except that Phyl was added to the reaction mixture at the beginning of the experiment in amounts so that the concentrations specified in Table 2 were obtained.

[3] = Solubility of acylating agent in aqueous system; assay type: physicochemical; conditions: aqueous system as used in the examples; dependent on salts, pH, temperature
Description: The solubility of the acylating agent such as the D-phenylglycine or D-p-hydroxyphenylglycine derivative or originating from the D,L mixtures as described in EP-A-339751, will vary with the identity of the derivative and with the composition of the reaction medium. […] However, the solubility is very dependent on the salt components in the solution, as well as on the pH value and the temperature of the solution. In some embodiments of the process of this invention, the initial reaction mixture is a slurry containing undissolved acylating agent and/or amino β-lactam, which will dissolve partly or fully during the course of the reaction. The β-lactam antibiotic formed may precipitate during the reaction and, also, the hydrolysis products of the acylating agent such as D-phenylglycine and D-p-hydroxyphenylglycine, may precipitate.

T1 sequence (P06875 27-235): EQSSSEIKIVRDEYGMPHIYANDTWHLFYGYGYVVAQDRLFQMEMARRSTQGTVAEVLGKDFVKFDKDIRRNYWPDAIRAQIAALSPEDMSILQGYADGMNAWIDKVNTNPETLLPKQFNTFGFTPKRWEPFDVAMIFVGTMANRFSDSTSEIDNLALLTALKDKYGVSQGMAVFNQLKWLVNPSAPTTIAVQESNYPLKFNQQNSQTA
T1 sequence (P06875 290-846): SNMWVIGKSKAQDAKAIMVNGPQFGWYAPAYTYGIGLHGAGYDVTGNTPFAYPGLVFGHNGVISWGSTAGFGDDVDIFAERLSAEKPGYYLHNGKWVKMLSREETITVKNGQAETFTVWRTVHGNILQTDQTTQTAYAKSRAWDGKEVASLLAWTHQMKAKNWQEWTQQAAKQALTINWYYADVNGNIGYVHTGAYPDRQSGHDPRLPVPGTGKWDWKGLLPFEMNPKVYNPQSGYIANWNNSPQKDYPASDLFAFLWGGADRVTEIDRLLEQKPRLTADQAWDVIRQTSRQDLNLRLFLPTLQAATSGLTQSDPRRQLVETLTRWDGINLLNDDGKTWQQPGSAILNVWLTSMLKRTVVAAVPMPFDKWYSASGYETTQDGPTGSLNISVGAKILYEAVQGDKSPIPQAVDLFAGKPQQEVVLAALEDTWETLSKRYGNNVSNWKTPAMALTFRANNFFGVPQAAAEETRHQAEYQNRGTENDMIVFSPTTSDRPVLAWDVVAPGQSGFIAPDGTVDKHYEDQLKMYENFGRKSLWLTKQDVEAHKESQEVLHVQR

With CC1(C)[C@H](C(=O)O)N2C(=O)[C@@H](NC(=O)Cc3ccccc3)[C@H]2[S+]1[O-] (some centres unmarked) [Penicillin G sulfoxide] the “Concentration interval where improvement of ratio X is found” value [1] was 2 to 500 µM.
For O=C(O)CSc1ccccc1 [(Phenylthio)acetic acid], the “Concentration interval where improvement of ratio X is found” value [1] was 2 to 1000 µM.
With O=[N+]([O-])c1ccc(O)c(CBr)c1 [2-Hydroxy-5-nitrobenzyl bromide] the “Concentration interval where improvement of ratio X is found” value [1] was 10 to 500 µM.
With CC1(C)S[C@@H]2[C@H](NC(=O)COc3ccccc3)C(=O)N2[C@H]1C(=O)O [Penicillin V] the “Concentration interval where improvement of ratio X is found” value [1] was 2-1000 μm.
In the case of O=C(O)Cc1ccccc1 [Phyl, phenylacetic acid], the “Initial velocity V0 (Amox)” value ([2]; Exp B, [Phyl] 32.9 μM) was 10.8 µmol/min/g, the “Initial velocity V0 (D-HPG)” value ([2]; Exp B, [Phyl] 32.9 μM) was 13.8 µmol/min/g and the Reaction stop time ([2]; Exp B, [Phyl] 32.9 μM) was 4.2 h. The “X at reaction stop time” value ([2]; Exp B, [Phyl] 32.9 μM) was 2.7, the “Initial velocity V0 (Amox)” value ([2]; Exp C, [Phyl] 63.3 μM) was 8.1 µmol/min/g and the “Initial velocity V0 (D-HPG)” value ([2]; Exp C, [Phyl] 63.3 μM) was 8.8 µmol/min/g. For the same molecule, the Reaction stop time ([2]; Exp C, [Phyl] 63.3 μM) was 5.1 h, the “X at reaction stop time” value ([2]; Exp C, [Phyl] 63.3 μM) was 2.5 and the “Initial velocity V0 (Amox)” value ([2]; Exp D, [Phyl] 127 μM) was 5.2 µmol/min/g. The “Initial velocity V0 (D-HPG)” value ([2]; Exp D, [Phyl] 127 μM) was 5.4 µmol/min/g, the Reaction stop time ([2]; Exp D, [Phyl] 127 μM) was 5.8 h and the “X at reaction stop time” value ([2]; Exp D, [Phyl] 127 μM) was 2.2.
For NC(=O)[C@H](N)c1ccccc1 [hydrochloride of D-phenylglycine amide, D-phenylglycine amide], the solubility [3] was “approximately 450 mM”.
